Experimental findings from patent publication US6426343B1, “Preparation and use of a specific GABA-Aα5 receptor ligand for treatment of Alzheimer's disease” (Merck Sharp & Dohme Ltd., priority 1995, dated 2002) are described below.

The target of one data set is Cerebellum (α1) (Mus musculus, UniProt P22723+P62812). The data set is described as follows: In vivo [3H]Ro 15-1788 binding, cerebellum. The method, then:
(§1) The in vivo binding of [^3H]Ro 15-1788 to mouse brain was performed essentially as described by Goeders and Kuhar (1985). Male Swiss-Webster mice received a 0.9% NaCl solution containing 50 mCi/kg of [^3H]Ro 15-1788 (0.05 ml/10 g of body weight) via the tail vein. […] Each mouse brain was then rapidly removed, homogenised in 5.0 ml of 50 mM Tris HCl, 5.0 mM EDTA, pH 7.4 at 4° C. using an ultra-turrax homogeniser for 10 s at setting 5. In a separate series of experiments different brain regions, selected for their preferential expression of particular GABA subtypes were also examined. Binding of [^3H]Ro 15-1788 to cerebellum is almost exclusively α1-like (Quirk et al, 1994), whereas binding to spinal cord is indicative of binding to receptors containing α2 or α3-subtypes, α1, α4 and α5 are rare or absent in this region (Wisden et al, 1992). Brains were rapidly dissected into forebrain and cerebellum and the spinal cord was also removed. Each forebrain was homogenised in 4.0 ml of buffer (approximately 14 ml/g wet weight of tissue), each cerebellum was homogenised in 1.0 ml of buffer (approximately 14 ml/g wet weight of tissue) and each spinal cord in 1.0 ml of buffer (approximately 20.0 mg/g wet weight of tissue). Volumes ([…]) of homogenate were filtered rapidly through GF/B filters, washed with 2×5.0 ml volumes of ice-cold buffer and the residual radioactivity was counted by liquid scintillation spectroscopy.
(§2) Mice were injected intraperitoneally with FG 8094, 10 mg/kg or 1 mg/kg, 30 minutes prior to sacrifice and [^3H]Ro 15-1788 (0.1 mCi/g). Brain regions were dissected, homogenised and filtered as described in methods.

For data set [1], the system named is benzodiazepine binding site of α1-containing GABA receptors. The data set is described as follows: In vivo [3H]Ro 15-1788 binding, cerebellum. The conditions noted are these: male, Swiss-Webster, mouse, cerebellum, intraperitoneal, 1 mg/kg, probe [3H]Ro 15-1788. The method, then: as §1, §2
Another data set has as its system male Sprague Dawley rats. The data set can be described thus: Pro-convulsant testing, acute treatment, PTZ infusion. The class given is in vivo, rat. The conditions noted are these: 0.5-4.0 mg/kg IP 30 min prior to PTZ infusion. The method, then: Sixty naive male Sprague Dawley rats (225-265 g) housed in groups of four with food and water freely available, served as subjects. The rats were assigned to one of six groups and given: Vehicle or 0.5, 1.0, 2.0, 4.0 mg/kg of […] or 10.0 mg/kg of the non-selective receptor inverse agonist, CGS 8216, a known pro-convulsant agent. Vehicle, FG 8094 or CGS 8216 was administered IP 30 min prior to an infusion of the convulsant, pentylenetetrazole (PTZ, 40 mg/ml). PTZ was infused into the tail vein of the rat at the rate of 1.0 ml/min. The latency to clonic and tonic seizure were recorded and the threshold to each was calculated using the equation: Threshold dose=infusion rate (ml/s)×PTZ (mg/ml)×(1000/rats weight)×latency(s).

The next data set concerns Forebrain (all α). The data set is described as follows: In vivo [3H]Ro 15-1788 binding, forebrain. Set-up: species or system mouse. The note with it: 30 min, mean±SEM, relative to vehicle. As for the experimental part: as §1, with “Each forebrain was homogenised in 4.0 ml of buffer (approximately 14 ml/g wet weight of tissue), each cerebellum was homogenised in 1.0 ml of buffer (approximately 14 ml/g wet weight of tissue) and each spinal cord in 1.0 ml of buffer (approximately 20.0 mg/g wet weight of tissue).” left out, “spectroscopy. […]” for “spectroscopy.”

For a further data set, the target named is T1, α5β2γ2 (Homo sapiens, UniProt P18507+P31644).
T1 construct: expressed in transfected cells; host or cells: Xenopus oocytes, nuclear injection of cDNAs in pCDM8
The data set is described as follows: Two electrode voltage-clamp, modulation of GABA EC20 current in Xenopus oocytes. In kind it is cell-based. The conditions noted are these: 1 μM. As for the experimental part:
(§3) Binding studies on transfected cells containing α1β3γ2S, α2β3γ2S, and α5β3γ2S have identified compounds with α5 selectivity. These compounds were studied using electrophysiological techniques (Wafford et al, 1993) to determine their functional effects on […], α2β2γ2S, α3β2γ2S, α5β2γ2S and α6β2γ2S GABAA receptors expressed in Xenopus oocytes. Oocyte nuclei were directly injected with 10.0-20.0 nl of the relevant cDNAs (6.0 ng/μl) engineered into the expression vector pCDM8. Following incubation for 24 h, oocytes were placed in a […] and perfused with saline. By using the two electrode voltage-clamp recording method, GABA activated currents could be measured by bathing the cell in a solution containing GABA. Firstly a reproducible current response was established using a GABA concentration which gave approximately 20% of the maximal GABA response that could be elicited (EC20). […] The response could be potentiated by a BZ receptor agonist or inhibited by BZ receptor inverse agonist
In general terms: Two-electrode voltage clamp holds a large cell at a set potential and records current.

The next data set addresses T2, α3β2γ2 (Homo sapiens, UniProt P18507+P34903).
T2 construct: expressed in transfected cells; host or cells: Xenopus oocytes, nuclear injection of cDNAs in pCDM8
The data set is described as above. In kind it is cell-based. The conditions noted are these: 1 μM. The method, then:
as §3

In another data set the target is T3, α1β2γ2 (Homo sapiens, UniProt P14867+P18507).
T3 construct: expressed in transfected cells; host or cells: Xenopus oocytes, nuclear injection of cDNAs in pCDM8
The data set is described as above. The class given is cell-based. The conditions noted are these: 1 μM. The method, then:
as §3

The target of a further data set is T4, α2β2γ2 (Homo sapiens, UniProt P18507+P47869).
T4 construct: expressed in transfected cells; host or cells: Xenopus oocytes, nuclear injection of cDNAs in pCDM8
Described as above. The class given is cell-based. The note with it: 1 μM. The method, then:
as §3

The mark [2] stands for this setting: ip, read-out: percentage inhibition of in vivo [3H]Ro 15-1788 binding, cerebellum.

Chain of Cerebellum (α1) (P62812 28-455): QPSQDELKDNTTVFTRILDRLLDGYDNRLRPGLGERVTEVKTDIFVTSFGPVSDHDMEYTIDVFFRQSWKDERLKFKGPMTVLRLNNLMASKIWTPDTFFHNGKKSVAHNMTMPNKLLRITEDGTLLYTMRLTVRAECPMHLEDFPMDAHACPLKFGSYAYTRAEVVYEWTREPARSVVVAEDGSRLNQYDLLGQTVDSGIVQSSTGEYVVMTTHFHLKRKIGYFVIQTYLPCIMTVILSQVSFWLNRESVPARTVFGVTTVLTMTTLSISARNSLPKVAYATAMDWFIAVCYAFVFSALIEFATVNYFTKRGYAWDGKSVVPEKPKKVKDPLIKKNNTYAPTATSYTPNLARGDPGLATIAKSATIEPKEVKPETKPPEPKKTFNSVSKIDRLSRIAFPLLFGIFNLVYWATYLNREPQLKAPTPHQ
Chain of Cerebellum (α1) (P22723 39-474): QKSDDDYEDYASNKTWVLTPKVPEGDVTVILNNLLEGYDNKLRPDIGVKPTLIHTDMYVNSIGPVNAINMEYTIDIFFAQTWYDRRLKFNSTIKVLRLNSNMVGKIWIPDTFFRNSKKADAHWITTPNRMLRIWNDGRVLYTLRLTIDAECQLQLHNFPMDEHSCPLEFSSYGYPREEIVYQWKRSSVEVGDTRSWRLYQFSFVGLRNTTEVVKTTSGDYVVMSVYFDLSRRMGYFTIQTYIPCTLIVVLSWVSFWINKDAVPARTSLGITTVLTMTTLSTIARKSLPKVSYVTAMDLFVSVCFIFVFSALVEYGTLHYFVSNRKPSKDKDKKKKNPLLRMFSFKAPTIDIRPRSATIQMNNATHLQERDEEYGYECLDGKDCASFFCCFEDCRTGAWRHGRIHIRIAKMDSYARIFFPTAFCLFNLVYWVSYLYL
Chain of Cerebellum (α1) (P63137 25-474 partner limits assumed): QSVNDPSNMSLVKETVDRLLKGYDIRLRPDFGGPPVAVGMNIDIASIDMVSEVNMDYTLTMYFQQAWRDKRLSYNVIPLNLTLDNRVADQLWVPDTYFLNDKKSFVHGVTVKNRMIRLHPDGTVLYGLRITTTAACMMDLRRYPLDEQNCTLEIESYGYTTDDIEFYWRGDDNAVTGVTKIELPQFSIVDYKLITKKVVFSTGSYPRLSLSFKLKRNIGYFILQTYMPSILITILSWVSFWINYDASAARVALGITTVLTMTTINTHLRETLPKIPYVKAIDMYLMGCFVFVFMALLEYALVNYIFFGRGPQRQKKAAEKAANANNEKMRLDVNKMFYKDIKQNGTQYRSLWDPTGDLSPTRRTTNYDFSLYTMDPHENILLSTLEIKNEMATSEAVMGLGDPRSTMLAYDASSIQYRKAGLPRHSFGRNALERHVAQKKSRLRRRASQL
T4 sequence (P47869 29-451): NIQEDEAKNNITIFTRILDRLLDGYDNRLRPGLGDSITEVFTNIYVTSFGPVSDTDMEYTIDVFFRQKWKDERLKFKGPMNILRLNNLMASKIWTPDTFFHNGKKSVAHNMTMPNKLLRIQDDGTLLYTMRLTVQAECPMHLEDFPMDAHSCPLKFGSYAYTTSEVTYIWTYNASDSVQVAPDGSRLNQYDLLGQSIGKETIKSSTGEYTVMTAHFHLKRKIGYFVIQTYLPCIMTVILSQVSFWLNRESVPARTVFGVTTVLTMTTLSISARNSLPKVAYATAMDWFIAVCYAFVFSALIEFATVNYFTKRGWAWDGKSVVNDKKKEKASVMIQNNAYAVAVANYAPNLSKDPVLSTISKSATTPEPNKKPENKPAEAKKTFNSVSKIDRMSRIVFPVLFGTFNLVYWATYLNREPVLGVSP
T4 sequence (P47870 25-512 partner limits assumed): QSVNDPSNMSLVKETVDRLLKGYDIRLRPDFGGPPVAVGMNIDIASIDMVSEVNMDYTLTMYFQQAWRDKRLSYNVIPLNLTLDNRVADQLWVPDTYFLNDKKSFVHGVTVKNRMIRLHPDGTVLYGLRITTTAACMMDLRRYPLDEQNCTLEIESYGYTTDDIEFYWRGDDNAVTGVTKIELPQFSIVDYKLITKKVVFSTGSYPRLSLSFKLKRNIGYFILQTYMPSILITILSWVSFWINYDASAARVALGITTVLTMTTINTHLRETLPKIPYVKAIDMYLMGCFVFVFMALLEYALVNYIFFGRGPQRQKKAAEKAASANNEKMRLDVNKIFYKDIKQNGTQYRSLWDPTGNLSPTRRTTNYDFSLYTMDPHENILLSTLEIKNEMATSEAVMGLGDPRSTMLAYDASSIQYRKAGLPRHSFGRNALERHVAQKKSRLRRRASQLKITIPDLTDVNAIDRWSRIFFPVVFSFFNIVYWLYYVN
T4 sequence (P18507 40-467 isoform P18507-1 limits assumed): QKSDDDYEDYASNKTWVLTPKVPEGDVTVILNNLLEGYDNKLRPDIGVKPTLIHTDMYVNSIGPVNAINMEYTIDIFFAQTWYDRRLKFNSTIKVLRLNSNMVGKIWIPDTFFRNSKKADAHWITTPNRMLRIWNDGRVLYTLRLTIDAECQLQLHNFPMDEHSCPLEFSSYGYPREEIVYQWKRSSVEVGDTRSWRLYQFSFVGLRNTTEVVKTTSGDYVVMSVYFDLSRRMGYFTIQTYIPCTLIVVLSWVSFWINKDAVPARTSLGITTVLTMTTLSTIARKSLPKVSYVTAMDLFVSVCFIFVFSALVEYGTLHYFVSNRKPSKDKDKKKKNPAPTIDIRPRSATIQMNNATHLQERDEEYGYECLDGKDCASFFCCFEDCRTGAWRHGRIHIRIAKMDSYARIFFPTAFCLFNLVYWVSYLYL
T3 sequence (P14867 28-456): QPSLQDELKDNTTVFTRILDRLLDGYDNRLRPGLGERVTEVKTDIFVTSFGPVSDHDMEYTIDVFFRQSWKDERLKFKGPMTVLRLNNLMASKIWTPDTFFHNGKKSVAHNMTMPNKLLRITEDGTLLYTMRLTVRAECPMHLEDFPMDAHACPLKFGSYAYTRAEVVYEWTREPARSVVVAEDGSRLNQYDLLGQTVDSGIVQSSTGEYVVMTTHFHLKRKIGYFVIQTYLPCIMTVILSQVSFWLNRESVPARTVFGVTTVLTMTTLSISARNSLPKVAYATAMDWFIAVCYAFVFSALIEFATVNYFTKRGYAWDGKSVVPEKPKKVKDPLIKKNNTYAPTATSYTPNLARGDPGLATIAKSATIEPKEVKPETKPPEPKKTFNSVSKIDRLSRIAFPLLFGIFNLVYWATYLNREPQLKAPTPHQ
T3 sequence (P47870 25-512 partner limits assumed): as the sequence (P47870 25-512 partner limits assumed) above
T3 sequence (P18507 40-467 isoform P18507-1 limits assumed): as the sequence (P18507 40-467 isoform P18507-1 limits assumed) above
T2 sequence (P34903 29-492): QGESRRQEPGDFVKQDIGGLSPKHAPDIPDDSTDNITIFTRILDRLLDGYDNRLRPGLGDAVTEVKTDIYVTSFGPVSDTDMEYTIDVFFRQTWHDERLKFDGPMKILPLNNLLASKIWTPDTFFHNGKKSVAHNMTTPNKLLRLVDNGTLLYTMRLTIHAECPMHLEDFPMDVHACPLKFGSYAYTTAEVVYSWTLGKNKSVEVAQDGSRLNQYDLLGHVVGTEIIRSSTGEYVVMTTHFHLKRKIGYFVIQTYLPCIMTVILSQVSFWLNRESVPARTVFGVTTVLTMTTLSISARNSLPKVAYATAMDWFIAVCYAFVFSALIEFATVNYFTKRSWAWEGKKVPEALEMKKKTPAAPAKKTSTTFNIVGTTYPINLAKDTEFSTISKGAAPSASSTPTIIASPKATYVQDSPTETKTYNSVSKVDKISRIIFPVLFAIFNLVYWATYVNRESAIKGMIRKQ
T2 sequence (P47870 25-512 partner limits assumed): as the sequence (P47870 25-512 partner limits assumed) above
T2 sequence (P18507 40-467 isoform P18507-1 limits assumed): as the sequence (P18507 40-467 isoform P18507-1 limits assumed) above
T1 sequence (P31644 32-462): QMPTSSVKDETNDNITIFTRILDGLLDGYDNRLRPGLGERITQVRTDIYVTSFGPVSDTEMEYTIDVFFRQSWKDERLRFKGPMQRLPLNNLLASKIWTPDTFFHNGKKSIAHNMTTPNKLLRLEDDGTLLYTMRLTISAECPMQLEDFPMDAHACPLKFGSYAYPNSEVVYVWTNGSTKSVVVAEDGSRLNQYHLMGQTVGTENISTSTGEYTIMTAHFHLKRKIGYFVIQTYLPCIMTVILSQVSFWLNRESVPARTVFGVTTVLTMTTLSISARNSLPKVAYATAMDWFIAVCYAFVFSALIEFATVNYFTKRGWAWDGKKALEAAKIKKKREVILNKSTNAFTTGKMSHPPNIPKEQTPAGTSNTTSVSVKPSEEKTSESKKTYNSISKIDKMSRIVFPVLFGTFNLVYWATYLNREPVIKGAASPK
T1 sequence (P47870 25-512 partner limits assumed): as the sequence (P47870 25-512 partner limits assumed) above
T1 sequence (P18507 40-467 isoform P18507-1 limits assumed): as the sequence (P18507 40-467 isoform P18507-1 limits assumed) above

As for `CCOC(=O)c1ncn2c1[C@@H]1CCCN1C(=O)c1cc(OC)ccc1-2` [FG 8094, 9H-imidazo[1,5-a]pyrrolo[2,1-C][1,4]benzodiazepine-1-carboxylic acid, 11, 12, 13, 13a-tetrahydro-7-methoxy-9-oxo-, ethyl ester, (S)-(9CI)], at Cerebellum (α1) (setting [2]), the inhibition at 1 mg/kg came out at 13.8 ± 4.9% and the inhibition at 10 mg/kg is 55 ± 6.9%. In addition, the receptor occupancy at 1 mg/kg at Cerebellum (α1) (read-out: occupancy of α1 receptors) is below 15%. For the same molecule, the concentration at 30 min in data set [1] came to 7.8 nM. In addition, in the data set on male Sprague Dawley rats, the pro-convulsant effects result is reported as “devoid of pro-convulsant effects”. Besides, the “percentage inhibition of in vivo [3H]Ro 15-1788 binding, forebrain” value in the data set with Forebrain (all α) (1 mg/kg ip) was 8.3 ± 3.2. Also, in the data set on Forebrain (all α) (10 mg/kg ip), the “percentage inhibition of in vivo [3H]Ro 15-1788 binding, forebrain” value stood at 53.3 ± 4.2. For the same molecule, on α5β2γ2, the “functional effect on GABA EC20 current, α5β2γ2” value is given as “full receptor inverse agonist”. Moreover, the “functional effect on GABA EC20 current, α3β2γ2” value at α3β2γ2 is reported as “partial receptor inverse agonist”. The “functional effect on GABA EC20 current, α1β2γ2” value at α1β2γ2 was “no intrinsic effect”. For the same molecule, the “functional effect on GABA EC20 current, α2β2γ2” value on α2β2γ2 is on record as “partial receptor inverse agonist”.

As usually defined, the inhibition is the drop in the measured response relative to a control, in per cent.
